Test results published in ChEMBL document CHEMBL4334471, “Discovery of 1,8-disubstituted-[1,2,3]triazolo[4,5-c]quinoline derivatives as a new class of Hippo signaling pathway inhibitors” (Bioorg Med Chem Lett, 2019).

Tests used:
[1] = system: Mitogen-activated protein kinase 14 (Homo sapiens), Q16539 [T106M]; experiment: Inhibition of recombinant human full length SAPK2a T106M mutant assessed as residual activity at 10 uM using myelin basic protein as substrate incubated for 40 mins in presence of [gamma33P]ATP by scintillation counting based radiometry assay relative to control
[2] = molecular target: Cyclin-dependent kinase 5/CDK5 activator 1 (Homo sapiens) (UniProt Q00535+Q15078); experiment: Inhibition of recombinant full length human CDK5/p25 assessed as residual activity at 10 uM using histone H1 as substrate incubated for 40 mins in presence of [gamma-33ATP] by scintillation counting based radiometry assay relative to control; format: protein-complex assay
[3] = molecular target: Casein kinase II subunit alpha' (Homo sapiens) (UniProt P19784); experiment: Inhibition of recombinant full length human CK2alpha2 assessed as residual activity at 10 uM using RRRDDDSDDD as substrate incubated 40 mins in presence of [gamma-33ATP] by scintillation counting based radiometry assay relative to control
[4] = system: Serine/threonine-protein kinase Chk2 (Homo sapiens), O96017 [R145W]; experiment: Inhibition of recombinant human CHK2 R145W mutant (5 to end residues) assessed as residual activity at 10 uM using KKKVSRSGLYRSPSMPENLNRPR as substrate incubated for 40 mins in presence of [gamma-33ATP] by scintillation counting based radiometry assay relative to control
[5] = molecular target: Phosphatidylinositol 5-phosphate 4-kinase type-2 alpha (Homo sapiens) (UniProt P48426); experiment: Inhibition of recombinant full-length human PIP4K2alpha assessed as residual activity at 10 uM using phosphatidylinositol 5-phosphate as substrate by HTRF assay relative to control
[6] = system: Epidermal growth factor receptor (Homo sapiens), P00533 [T790M]; experiment: Inhibition of recombinant human EGFR T790M mutant (696 to end residues) assessed as residual activity at 10 uM using poly(Glu, Tyr) 4:1 as substrate at 40 mins in presence of [gamma-33ATP] by scintillation counting based radiometry assay relative to control
[7] = molecular target: Mitogen-activated protein kinase kinase kinase kinase 5 (Homo sapiens) (UniProt Q9Y4K4); experiment: Inhibition of recombinant human MAP4K5 assessed as residual activity at 10 uM using myelin basic protein as substrate incubated for 40 mins in presence of [gamma-33ATP by scintillation counting based radiometry assay relative to control
[8] = molecular target: Serine/threonine-protein kinase MAK (Homo sapiens) (UniProt P20794); experiment: Inhibition of recombinant human MAK assessed as residual activity at 10 uM using RRRFRPASPLRGPPK as substrate after 120 mins in presence of [gamma-33ATP] by scintillation counting based radiometry assay relative to control
[9] = molecular target: MAP/microtubule affinity-regulating kinase 4 (Homo sapiens) (UniProt Q96L34); experiment: Inhibition of recombinant full length human MARK4 assessed as residual activity at 10 uM using KKKVSRSGLYRSPSMPENLNRPR as substrate incubated for 40 mins in presence of [gamma-33ATP by scintillation counting based radiometry assay relative to control
[10] = molecular target: Serine/threonine-protein kinase 24 (Homo sapiens) (UniProt Q9Y6E0); experiment: Inhibition of recombinant human MST3 (1 to 304 residues) assessed as residual activity at 10 uM using ERMRPRKRQGSVR as substrate measured after 40 mins in presence of [gamma33P]ATP by scintillation counting based radiometry assay relative to control
[11] = molecular target: Vascular endothelial growth factor receptor 1 (Homo sapiens) (UniProt P17948); experiment: Inhibition of recombinant human FLT1 (783 to end residues) assessed as residual activity at 10 uM using KKKSPGEYVNIEF as substrate at 40 mins in presence of [gamma-33ATP] by scintillation counting based radiometry assay relative to control
[12] = molecular target: Tau-tubulin kinase 1 (Homo sapiens) (UniProt Q5TCY1); experiment: Inhibition of recombinant human TTBK1 (1 to 479 residues) assessed as residual activity at 10 uM using casein as substrate incubated for 40 mins in presence of [gamma33P]ATP by scintillation counting based radiometry assay relative to control
[13] = system: Mast/stem cell growth factor receptor Kit (Homo sapiens), P10721 [V654A]; experiment: Inhibition of recombinant human C-Kit V654A mutant (544 to end residues) assessed as residual activity at 10 uM poly(Glu, Tyr) 4:1 as substrate incubated 40 mins in presence of [gamma-33ATP] by scintillation counting based radiometry assay relative to control
[14] = molecular target: Inhibitor of nuclear factor kappa-B kinase subunit alpha (Homo sapiens) (UniProt O15111); experiment: Inhibition of full length human IKKalpha assessed as residual activity at 10 uM using peptide as substrate after 40 mins by [gamma-33ATP] radiometric assay relative to control
[15] = system: Fibroblast growth factor receptor 2 (Homo sapiens), P21802 [N549H]; experiment: Inhibition of recombinant human FGFR2 N549H mutant (456 to 765 residues) assessed as residual activity at 10 uM using KKKSPGEYVNIEF as substrate at 40 mins in presence of [gamma-33ATP] by scintillation counting based radiometry assay relative to control
[16] = molecular target: Protein kinase C delta type (Homo sapiens) (UniProt Q05655); experiment: Inhibition of recombinant human PKCdelta (2 to end residues) assessed as residual activity at 10 uM using ERMRPRKRQGSVRR as substrate incubated for 40 mins in presence of [gamma33P]ATP by scintillation counting based radiometry assay relative to control
[17] = molecular target: Myosin-IIIb (Homo sapiens) (UniProt Q8WXR4); experiment: Inhibition of recombinant human MYO3B (1 to 306 residues) assessed as residual activity at 10 uM using RLGRDKYKTLRQI as substrate measured after 40 mins in presence of [gamma33P]ATP by scintillation counting based radiometry assay relative to control
[18] = system: Serine/threonine-protein kinase N1 (Homo sapiens), Q16512 [V901I]; experiment: Inhibition of recombinant human PRK1 V901I mutant (498 to end residues) assessed as residual activity at 10 uM using KKLNRTLSFAEPG as substrate incubated for 40 mins in presence of [gamma33P]ATP by scintillation counting based radiometry assay relative to control
[19] = molecular target: Serine/threonine-protein kinase pim-1 (Homo sapiens) (UniProt P11309); experiment: Inhibition of recombinant full length human Pim1 assessed as residual activity at 10 uM using KKRNRTLTV as substrate incubated for 40 mins in presence of [gamma33P]ATP by scintillation counting based radiometry assay relative to control
[20] = system: Mast/stem cell growth factor receptor Kit (Homo sapiens), P10721 [D816V]; experiment: Inhibition of recombinant human C-Kit D816V mutant (544 to end residues) assessed as residual activity at 10 uM poly(Glu, Tyr) 4:1 as substrate incubated 40 mins in presence of [gamma-33ATP] by scintillation counting based radiometry assay relative to control
Sequence of Mast/stem cell growth factor receptor Kit (Homo sapiens), P10721 [D816V] (P10721 whole entry D816V): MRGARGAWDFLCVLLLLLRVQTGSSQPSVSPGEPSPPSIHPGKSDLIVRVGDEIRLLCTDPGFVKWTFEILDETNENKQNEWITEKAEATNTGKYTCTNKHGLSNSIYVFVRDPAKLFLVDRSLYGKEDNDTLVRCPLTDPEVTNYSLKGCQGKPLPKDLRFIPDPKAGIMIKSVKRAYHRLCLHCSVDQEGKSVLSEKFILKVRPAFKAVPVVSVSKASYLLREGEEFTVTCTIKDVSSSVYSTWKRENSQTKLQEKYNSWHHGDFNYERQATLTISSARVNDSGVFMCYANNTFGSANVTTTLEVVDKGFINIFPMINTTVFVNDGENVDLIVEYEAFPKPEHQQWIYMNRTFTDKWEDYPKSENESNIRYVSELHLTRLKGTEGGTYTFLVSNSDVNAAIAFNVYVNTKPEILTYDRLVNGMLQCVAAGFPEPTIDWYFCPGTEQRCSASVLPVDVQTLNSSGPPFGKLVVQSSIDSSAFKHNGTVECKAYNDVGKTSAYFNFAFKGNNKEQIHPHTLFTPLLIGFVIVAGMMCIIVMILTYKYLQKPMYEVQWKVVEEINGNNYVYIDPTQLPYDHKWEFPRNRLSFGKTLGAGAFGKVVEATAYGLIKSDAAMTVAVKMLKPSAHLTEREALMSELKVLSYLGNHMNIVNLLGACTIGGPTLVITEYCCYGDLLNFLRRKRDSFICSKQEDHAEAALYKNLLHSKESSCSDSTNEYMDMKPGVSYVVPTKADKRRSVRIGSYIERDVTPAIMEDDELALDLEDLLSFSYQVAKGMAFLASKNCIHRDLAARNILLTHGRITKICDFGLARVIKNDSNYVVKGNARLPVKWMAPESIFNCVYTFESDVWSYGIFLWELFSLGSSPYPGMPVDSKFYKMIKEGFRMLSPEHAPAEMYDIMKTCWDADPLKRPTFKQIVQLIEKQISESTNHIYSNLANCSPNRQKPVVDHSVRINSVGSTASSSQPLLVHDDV

Sequence of Serine/threonine-protein kinase Chk2 (Homo sapiens), O96017 [R145W] (O96017 whole entry R145W): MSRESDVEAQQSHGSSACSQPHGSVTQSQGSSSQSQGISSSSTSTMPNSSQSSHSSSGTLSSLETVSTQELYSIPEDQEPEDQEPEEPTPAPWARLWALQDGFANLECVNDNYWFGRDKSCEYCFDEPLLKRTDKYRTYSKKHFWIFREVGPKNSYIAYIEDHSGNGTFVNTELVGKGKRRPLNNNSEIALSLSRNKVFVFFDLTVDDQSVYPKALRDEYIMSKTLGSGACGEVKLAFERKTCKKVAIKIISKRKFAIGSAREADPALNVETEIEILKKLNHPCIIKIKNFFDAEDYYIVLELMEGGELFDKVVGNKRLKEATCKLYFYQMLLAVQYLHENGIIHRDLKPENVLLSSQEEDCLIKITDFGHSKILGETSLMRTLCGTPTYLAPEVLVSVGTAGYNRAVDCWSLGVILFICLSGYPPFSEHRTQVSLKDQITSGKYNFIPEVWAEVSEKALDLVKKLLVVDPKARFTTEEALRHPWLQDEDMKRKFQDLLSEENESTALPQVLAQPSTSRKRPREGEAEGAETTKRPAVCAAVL
Sequence of Vascular endothelial growth factor receptor 1 (Homo sapiens) (P17948 whole entry, the tested form may be a part): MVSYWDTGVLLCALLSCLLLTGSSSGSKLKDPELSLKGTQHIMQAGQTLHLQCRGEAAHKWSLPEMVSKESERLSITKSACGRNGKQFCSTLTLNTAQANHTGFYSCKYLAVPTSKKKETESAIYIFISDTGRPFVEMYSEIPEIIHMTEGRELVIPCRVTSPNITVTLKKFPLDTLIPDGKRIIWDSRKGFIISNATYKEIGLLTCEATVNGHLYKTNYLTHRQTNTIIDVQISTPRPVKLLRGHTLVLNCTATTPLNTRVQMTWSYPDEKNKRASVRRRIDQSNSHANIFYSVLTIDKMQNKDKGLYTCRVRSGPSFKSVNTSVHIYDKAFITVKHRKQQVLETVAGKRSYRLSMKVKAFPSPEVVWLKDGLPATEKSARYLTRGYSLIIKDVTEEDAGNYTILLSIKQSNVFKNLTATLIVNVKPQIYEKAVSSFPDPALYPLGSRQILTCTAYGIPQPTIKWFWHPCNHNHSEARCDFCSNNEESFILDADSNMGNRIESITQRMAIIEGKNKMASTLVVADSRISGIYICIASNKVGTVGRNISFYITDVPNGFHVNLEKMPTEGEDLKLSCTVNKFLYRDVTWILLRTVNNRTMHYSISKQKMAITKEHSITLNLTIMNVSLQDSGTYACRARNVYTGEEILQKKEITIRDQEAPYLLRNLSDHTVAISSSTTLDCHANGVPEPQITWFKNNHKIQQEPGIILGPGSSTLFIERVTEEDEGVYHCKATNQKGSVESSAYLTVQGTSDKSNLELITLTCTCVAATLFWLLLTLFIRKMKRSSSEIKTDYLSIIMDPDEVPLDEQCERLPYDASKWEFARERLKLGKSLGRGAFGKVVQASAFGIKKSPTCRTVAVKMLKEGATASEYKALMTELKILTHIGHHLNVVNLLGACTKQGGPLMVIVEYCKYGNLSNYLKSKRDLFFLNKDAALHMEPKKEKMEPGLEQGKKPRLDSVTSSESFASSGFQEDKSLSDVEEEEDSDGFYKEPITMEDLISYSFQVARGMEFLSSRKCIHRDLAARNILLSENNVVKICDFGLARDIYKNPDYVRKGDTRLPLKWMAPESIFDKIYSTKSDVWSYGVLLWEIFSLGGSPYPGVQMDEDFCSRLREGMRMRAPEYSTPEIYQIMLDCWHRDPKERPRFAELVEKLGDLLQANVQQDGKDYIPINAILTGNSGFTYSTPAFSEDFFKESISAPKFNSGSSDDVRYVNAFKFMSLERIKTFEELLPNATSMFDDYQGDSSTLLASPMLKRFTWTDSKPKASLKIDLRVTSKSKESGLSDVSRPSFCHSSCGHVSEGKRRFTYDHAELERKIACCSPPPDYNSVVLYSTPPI
Sequence of Mitogen-activated protein kinase kinase kinase kinase 5 (Homo sapiens) (Q9Y4K4 whole entry, looked up): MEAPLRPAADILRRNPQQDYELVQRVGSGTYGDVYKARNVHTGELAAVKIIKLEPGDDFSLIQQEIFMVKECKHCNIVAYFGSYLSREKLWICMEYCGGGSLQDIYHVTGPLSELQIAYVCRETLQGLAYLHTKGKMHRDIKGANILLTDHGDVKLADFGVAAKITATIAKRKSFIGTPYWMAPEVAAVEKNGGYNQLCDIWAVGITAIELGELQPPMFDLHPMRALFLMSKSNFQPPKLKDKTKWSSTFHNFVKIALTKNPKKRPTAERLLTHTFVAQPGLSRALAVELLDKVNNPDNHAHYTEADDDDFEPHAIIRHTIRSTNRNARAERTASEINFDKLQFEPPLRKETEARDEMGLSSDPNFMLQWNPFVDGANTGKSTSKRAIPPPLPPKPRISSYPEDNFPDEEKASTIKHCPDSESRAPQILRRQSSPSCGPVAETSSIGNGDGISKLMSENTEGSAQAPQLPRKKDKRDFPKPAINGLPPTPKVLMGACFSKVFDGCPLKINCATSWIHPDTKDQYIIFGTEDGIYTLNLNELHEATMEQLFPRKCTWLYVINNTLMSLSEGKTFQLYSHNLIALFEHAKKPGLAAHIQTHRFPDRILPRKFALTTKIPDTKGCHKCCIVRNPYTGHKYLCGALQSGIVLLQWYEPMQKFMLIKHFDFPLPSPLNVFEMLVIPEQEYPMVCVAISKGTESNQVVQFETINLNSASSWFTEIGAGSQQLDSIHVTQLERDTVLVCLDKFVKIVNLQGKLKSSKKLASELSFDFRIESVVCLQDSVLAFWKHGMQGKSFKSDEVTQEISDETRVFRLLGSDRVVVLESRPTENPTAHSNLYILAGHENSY
Sequence of Myosin-IIIb (Homo sapiens) (Q8WXR4 whole entry, the tested form may be a part): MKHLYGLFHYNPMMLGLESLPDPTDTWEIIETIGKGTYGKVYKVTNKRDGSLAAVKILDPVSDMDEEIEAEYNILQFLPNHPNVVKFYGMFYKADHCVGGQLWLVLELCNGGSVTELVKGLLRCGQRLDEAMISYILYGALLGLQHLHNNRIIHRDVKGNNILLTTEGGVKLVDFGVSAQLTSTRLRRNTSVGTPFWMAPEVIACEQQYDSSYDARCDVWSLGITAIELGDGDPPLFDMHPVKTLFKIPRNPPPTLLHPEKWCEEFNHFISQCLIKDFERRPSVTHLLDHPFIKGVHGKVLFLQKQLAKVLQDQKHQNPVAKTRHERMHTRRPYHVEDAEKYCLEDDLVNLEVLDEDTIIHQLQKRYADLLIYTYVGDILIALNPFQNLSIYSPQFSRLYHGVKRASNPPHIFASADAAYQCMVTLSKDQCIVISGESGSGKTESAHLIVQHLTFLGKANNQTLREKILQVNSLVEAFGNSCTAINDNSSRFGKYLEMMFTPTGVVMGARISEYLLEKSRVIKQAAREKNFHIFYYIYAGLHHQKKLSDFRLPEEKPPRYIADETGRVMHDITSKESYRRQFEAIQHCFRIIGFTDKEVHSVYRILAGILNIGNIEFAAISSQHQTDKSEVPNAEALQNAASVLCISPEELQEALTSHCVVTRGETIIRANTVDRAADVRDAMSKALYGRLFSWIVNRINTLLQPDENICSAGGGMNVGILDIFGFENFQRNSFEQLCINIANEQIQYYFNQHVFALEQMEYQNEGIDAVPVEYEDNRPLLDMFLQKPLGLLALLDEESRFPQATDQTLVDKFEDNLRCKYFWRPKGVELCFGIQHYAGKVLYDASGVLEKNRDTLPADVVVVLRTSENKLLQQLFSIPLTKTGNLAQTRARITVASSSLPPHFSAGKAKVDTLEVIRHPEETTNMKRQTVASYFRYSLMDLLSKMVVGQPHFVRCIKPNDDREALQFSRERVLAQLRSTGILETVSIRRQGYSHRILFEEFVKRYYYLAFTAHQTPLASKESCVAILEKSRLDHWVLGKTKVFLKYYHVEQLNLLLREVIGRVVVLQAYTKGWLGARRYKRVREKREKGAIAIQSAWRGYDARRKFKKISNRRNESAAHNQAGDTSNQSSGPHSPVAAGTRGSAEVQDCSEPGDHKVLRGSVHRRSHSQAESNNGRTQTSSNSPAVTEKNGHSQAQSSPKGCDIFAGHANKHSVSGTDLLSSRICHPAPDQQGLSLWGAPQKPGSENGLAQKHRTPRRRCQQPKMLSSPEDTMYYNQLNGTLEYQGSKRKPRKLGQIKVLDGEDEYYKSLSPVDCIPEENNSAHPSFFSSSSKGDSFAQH
Sequence of Mast/stem cell growth factor receptor Kit (Homo sapiens), P10721 [V654A] (P10721 whole entry V654A): as the sequence (P10721 whole entry D816V) above, with V654A, V816D counted along it

Work on C[C@@H](c1ccccc1)n1nnc2cnc3ccc(-c4cnc5[nH]ccc5c4)cc3c21 yielded an Activity [1] of 97%, an Activity [2] of 93% and an Activity [3] of 83%. The Activity [4] was 81%, the Activity [5] was 95% and the Activity [6] was 59%. The Activity [7] was 62%, the Activity [8] was 87% and the Activity [9] was 89%. It also gave an Activity [10] of 90%, an Activity [11] of 49% and an Activity [12] of 91%. It also gave an Activity [13] of 109%, an Activity [14] of 90% and an Activity [15] of 27%. It also gave an Activity [16] of 91%, an Activity [17] of 73% and an Activity [18] of 60%. The Activity [19] was 68% and the Activity [20] was 86%.
